# Results as given in US20240207247A1, “METHODS FOR THE COMBINED ADMINISTRATION OF DEUTETRABENAZINE AND A CYP2D6 INHIBITOR” (Neurocrine Biosciences, Inc., priority 2021, published 2024).
# Key:
# [1] = Phase 1 open-label 2-sequence crossover single-dose pharmacokinetic study of deutetrabenazine metabolites; type: in vivo, human (healthy male and female subjects); settings: share of total DHTBZ exposure after single dose deutetrabenazine 24 mg, healthy subjects
# Experimental: A phase 1, open-label, 2-sequence crossover study was conducted to evaluate the HTBZ PK profile following administration of valbenazine (40 mg) or deutetrabenazine (24 mg) to a total of 18 healthy male and female subjects. Subjects received a single dose of valbenazine 40 mg on Day 1 and a single dose of deutetrabenazine 24 mg on Day 16; or received a single dose of deutetrabenazine 24 mg on Day 1 and a single dose of valbenazine 40 mg on Day 16. Valbenazine 40 mg was administered as one 40 mg capsule and deutetrabenazine 24 mg was administered as two 12 mg tablets. Study drug was administered at approximately 0800 hours, approximately 30 minutes after the start of a standard breakfast. […] PK parameters were determined using non-compartmental analysis with Phoenix WinNonlin 8.3 software. The in vitro pharmacology of the deuterated HTBZ metabolites was assessed using competitive radioligand binding assays.
# [2] = paroxetine 20 mg daily for 8 days, then single 22.5 mg dose of deutetrabenazine; 24 healthy subjects; cited from earlier work
Structure (SMILES),AUC (% of Total) [1],increase in mean half-life in the presence of paroxetine [2]
[2H]C([2H])([2H])Oc1cc2c(cc1OC([2H])([2H])[2H])[C@H]1C[C@@H](O)[C@H](CC(C)C)CN1CC2 [[+]-α-DHTBZ],2%,
"[2H]C([2H])([2H])Oc1cc2c(cc1OC([2H])([2H])[2H])[C@H]1C[C@H](O)[C@H](CC(C)C)CN1CC2 [[+]-β-DHTBZ, (+)-β-3-isobutyl-9,10-di(methoxy-d3)-1,3,4,6,7,11b-hexahydro-2H-pyrido[2,1-a]isoquinolin-2-ol]",29%,
"[2H]C([2H])([2H])Oc1cc2c(cc1OC([2H])([2H])[2H])[C@@H]1C[C@H](O)[C@@H](CC(C)C)CN1CC2 [[−]-α-DHTBZ, (−)-α-3-isobutyl-9,10-di(methoxy-d3)-1,3,4,6,7,11b-hexahydro-2H-pyrido[2,1-a]isoquinolin-2-ol]",66%,
"[2H]C([2H])([2H])Oc1cc2c(cc1OC([2H])([2H])[2H])[C@@H]1C[C@@H](O)[C@@H](CC(C)C)CN1CC2 [[−]-β-DHTBZ, (−) -β-3-isobutyl-9,10-di(methoxy-d3)-1,3,4,6,7,11b-hexahydro-2H-pyrido[2,1-a]isoquinolin-2-ol]",3%,
COc1cc2c(cc1OC)[C@@H]1C[C@H](O)[C@@H](CC(C)C)CN1CC2 [α-DHTBZ],,approximately 1.5 fold
